Source: patent US11725011B2, “Bicyclic urea kinase inhibitors and uses thereof” (The Broad Institute, Inc., priority 2016, dated 2023)

How the values were obtained:
CDKL3 = CDKL3 (Homo sapiens (Human), UniProt Q8IVW4); experiment: KINOMEscan; type: binding; conditions: 1 uM
CAMKK2 = CAMKK2 (Homo sapiens (Human), UniProt Q96RR4); experiment: KINOMEscan; type: binding; conditions: 1 uM
TNK1 = TNK1 (Homo sapiens (Human), UniProt Q13470); experiment: KINOMEscan; type: binding; conditions: 1 uM
MKNK2 = MKNK2 (Homo sapiens (Human), UniProt Q9HBH9); experiment: KINOMEscan; type: binding; conditions: 1 uM
IKK-epsilon = IKK-epsilon (Homo sapiens (Human), UniProt Q14164); experiment: KINOMEscan; type: binding; conditions: 1 uM
PIP5K2B = PIP5K2B (Homo sapiens (Human), UniProt P78356); experiment: KINOMEscan; type: binding; conditions: 1 uM
SIK3 = SIK3 (Homo sapiens (Human), UniProt Q9Y2K2); experiment: Percent activity against SIK3 at 1 μM; type: biochemical
HIPK1 = HIPK1 (Homo sapiens (Human), UniProt Q86Z02); experiment: KINOMEscan; type: binding; conditions: 1 uM
RIOK3 = RIOK3 (Homo sapiens (Human), UniProt O14730); experiment: KINOMEscan; type: binding; conditions: 1 uM
TAOK2 = TAOK2 (Homo sapiens (Human), UniProt Q9UL54); experiment: KINOMEscan; type: binding; conditions: 1 uM
S6K1 = S6K1 (Homo sapiens (Human), UniProt P23443); experiment: KINOMEscan; type: binding; conditions: 1 uM
CASK = CASK (Homo sapiens (Human), UniProt O14936); experiment: KINOMEscan; type: binding; conditions: 1 uM
MEK3 = MEK3 (Homo sapiens (Human), UniProt P46734); experiment: KINOMEscan; type: binding; conditions: 1 uM
BUB1 = BUB1 (Homo sapiens (Human), UniProt O43683); experiment: KINOMEscan; type: binding; conditions: 1 uM
MERTK = MERTK (Homo sapiens (Human), UniProt Q12866); experiment: KINOMEscan; type: binding; conditions: 1 uM
CSNK1G1 = CSNK1G1 (Homo sapiens (Human), UniProt Q9HCP0); experiment: KINOMEscan; type: binding; conditions: 1 uM
ERK5 = ERK5 (Homo sapiens (Human), UniProt Q13164); experiment: KINOMEscan; type: binding; conditions: 1 uM
ACVR2B = ACVR2B (Homo sapiens (Human), UniProt Q13705); experiment: KINOMEscan; type: binding; conditions: 1 uM
[1] = target: RPS6KA4 (Kin.Dom.2-C-terminal) (Homo sapiens (Human), UniProt O75676); experiment: KINOMEscan; type: binding; conditions: 1 uM
ALK = ALK (Homo sapiens (Human), UniProt Q9UM73); experiment: KINOMEscan; type: binding; conditions: 1 uM
TBK1 = TBK1 (Homo sapiens (Human), UniProt Q9UHD2); experiment: KINOMEscan; type: binding; conditions: 1 uM
CDK8 = CDK8 (Homo sapiens (Human), UniProt P49336); experiment: KINOMEscan; type: binding; conditions: 1 uM
CLK4 = CLK4 (Homo sapiens (Human), UniProt Q9HAZ1); experiment: KINOMEscan; type: binding; conditions: 1 uM
RIPK4 = RIPK4 (Homo sapiens (Human), UniProt P57078); experiment: KINOMEscan; type: binding; conditions: 1 uM
TRKB = TRKB (Homo sapiens (Human), UniProt Q16620); experiment: KINOMEscan; type: binding; conditions: 1 uM
STK39 = STK39 (Homo sapiens (Human), UniProt Q9UEW8); experiment: KINOMEscan; type: binding; conditions: 1 uM
CDK4-cyclinD3 = CDK4-cyclinD3 (Homo sapiens (Human), UniProt P11802); experiment: KINOMEscan; type: binding; conditions: 1 uM
EGFR = EGFR (Homo sapiens (Human), UniProt P00533); experiment: KINOMEscan; type: binding; conditions: 1 uM
KIT (V559D, V654A) = KIT (V559D, V654A) (Homo sapiens (Human), UniProt P10721, V559D/V654A); experiment: KINOMEscan; type: binding; conditions: 1 uM
SGK = SGK (Homo sapiens (Human), UniProt O00141); experiment: KINOMEscan; type: binding; conditions: 1 uM
[2] = target: JAK1 (JH1domain-catalytic) (Homo sapiens (Human), UniProt P23458); experiment: KINOMEscan; type: binding; conditions: 1 uM
PAK3 = PAK3 (Homo sapiens (Human), UniProt O75914); experiment: KINOMEscan; type: binding; conditions: 1 uM
CAMK2A = CAMK2A (Homo sapiens (Human), UniProt Q9UQM7); experiment: KINOMEscan; type: binding; conditions: 1 uM
TIE1 = TIE1 (Homo sapiens (Human), UniProt P35590); experiment: KINOMEscan; type: binding; conditions: 1 uM
WEE2 = WEE2 (Homo sapiens (Human), UniProt P0C1S8); experiment: KINOMEscan; type: binding; conditions: 1 uM
PIK3CA (H1047Y) = PIK3CA (H1047Y) (Homo sapiens (Human), UniProt P42336, H1047Y); experiment: KINOMEscan; type: binding; conditions: 1 uM
AKT2 = AKT2 (Homo sapiens (Human), UniProt P31751); experiment: KINOMEscan; type: binding; conditions: 1 uM
MRCKB = MRCKB (Homo sapiens (Human), UniProt Q9Y5S2); experiment: KINOMEscan; type: binding; conditions: 1 uM
ABL2 = ABL2 (Homo sapiens (Human), UniProt P42684); experiment: KINOMEscan; type: binding; conditions: 1 uM
GAK = GAK (Homo sapiens (Human), UniProt O14976); experiment: KINOMEscan; type: binding; conditions: 1 uM
HIPK4 = HIPK4 (Homo sapiens (Human), UniProt Q8NE63); experiment: KINOMEscan; type: binding; conditions: 1 uM

Sequence of SIK3 (Q9Y2K2 whole entry): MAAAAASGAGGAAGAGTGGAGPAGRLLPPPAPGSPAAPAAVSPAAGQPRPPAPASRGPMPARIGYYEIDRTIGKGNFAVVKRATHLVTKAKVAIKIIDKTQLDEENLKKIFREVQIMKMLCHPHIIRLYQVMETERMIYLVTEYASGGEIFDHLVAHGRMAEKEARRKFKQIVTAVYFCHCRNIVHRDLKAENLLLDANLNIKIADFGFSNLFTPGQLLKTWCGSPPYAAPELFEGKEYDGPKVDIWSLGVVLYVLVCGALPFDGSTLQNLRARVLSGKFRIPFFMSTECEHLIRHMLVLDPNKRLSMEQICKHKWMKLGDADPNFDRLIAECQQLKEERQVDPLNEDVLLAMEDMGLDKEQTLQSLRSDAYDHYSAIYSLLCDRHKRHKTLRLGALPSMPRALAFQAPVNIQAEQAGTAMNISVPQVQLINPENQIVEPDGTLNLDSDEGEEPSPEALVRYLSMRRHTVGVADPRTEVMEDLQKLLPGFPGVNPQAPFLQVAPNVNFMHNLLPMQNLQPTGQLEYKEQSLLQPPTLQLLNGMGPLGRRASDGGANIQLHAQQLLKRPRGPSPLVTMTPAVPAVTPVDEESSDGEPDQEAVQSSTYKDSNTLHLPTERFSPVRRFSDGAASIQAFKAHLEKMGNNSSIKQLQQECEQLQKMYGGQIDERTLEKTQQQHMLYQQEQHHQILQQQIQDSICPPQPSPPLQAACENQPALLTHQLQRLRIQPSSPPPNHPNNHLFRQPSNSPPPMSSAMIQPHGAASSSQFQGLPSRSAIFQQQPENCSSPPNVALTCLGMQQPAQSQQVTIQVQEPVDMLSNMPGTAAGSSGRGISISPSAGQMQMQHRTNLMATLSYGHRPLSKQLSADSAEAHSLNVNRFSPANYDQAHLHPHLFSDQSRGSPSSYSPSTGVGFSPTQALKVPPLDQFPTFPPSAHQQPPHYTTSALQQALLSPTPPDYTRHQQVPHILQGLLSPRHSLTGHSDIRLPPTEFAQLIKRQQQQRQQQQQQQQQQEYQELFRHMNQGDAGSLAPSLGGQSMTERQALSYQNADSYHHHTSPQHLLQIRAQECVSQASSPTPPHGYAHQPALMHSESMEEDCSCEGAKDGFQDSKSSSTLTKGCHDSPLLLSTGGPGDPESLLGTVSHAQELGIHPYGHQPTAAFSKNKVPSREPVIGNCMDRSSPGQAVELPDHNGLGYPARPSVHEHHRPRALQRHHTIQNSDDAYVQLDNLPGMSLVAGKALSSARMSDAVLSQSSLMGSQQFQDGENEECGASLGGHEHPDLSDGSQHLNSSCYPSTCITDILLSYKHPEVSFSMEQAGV
Sequence of HIPK1 (Q86Z02 whole entry): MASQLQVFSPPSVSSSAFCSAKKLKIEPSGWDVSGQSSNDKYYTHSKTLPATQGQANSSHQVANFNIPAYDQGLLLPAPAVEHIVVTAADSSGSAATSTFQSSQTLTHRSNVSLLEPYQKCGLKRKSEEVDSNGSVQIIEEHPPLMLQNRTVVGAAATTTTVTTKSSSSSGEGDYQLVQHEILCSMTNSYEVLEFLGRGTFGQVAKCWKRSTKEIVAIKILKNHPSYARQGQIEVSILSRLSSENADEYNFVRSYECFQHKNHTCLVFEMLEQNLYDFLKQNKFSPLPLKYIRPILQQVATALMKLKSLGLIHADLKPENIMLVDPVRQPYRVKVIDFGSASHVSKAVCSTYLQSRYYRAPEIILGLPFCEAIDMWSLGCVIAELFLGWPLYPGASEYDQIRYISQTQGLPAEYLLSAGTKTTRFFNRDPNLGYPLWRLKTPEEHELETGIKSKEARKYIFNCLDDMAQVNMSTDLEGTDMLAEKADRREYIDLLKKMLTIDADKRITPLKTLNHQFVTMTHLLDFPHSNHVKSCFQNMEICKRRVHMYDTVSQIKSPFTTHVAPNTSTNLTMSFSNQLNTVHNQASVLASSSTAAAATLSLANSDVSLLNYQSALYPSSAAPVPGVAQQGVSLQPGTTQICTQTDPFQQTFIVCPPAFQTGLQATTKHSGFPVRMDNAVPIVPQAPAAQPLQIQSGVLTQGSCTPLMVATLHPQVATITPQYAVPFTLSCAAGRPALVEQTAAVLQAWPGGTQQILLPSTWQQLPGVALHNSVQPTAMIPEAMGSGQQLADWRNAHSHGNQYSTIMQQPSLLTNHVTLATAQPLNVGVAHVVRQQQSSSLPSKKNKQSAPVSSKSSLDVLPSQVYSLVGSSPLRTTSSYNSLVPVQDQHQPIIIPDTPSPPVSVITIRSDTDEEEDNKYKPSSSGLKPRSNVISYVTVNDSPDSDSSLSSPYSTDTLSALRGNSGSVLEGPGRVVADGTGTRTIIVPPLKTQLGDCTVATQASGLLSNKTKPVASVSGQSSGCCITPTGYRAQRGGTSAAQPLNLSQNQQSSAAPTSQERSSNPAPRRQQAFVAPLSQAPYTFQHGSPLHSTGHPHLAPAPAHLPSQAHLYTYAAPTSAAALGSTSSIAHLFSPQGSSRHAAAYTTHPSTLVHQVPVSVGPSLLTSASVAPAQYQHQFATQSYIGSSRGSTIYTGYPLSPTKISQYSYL
Sequence of AKT2 (P31751 whole entry): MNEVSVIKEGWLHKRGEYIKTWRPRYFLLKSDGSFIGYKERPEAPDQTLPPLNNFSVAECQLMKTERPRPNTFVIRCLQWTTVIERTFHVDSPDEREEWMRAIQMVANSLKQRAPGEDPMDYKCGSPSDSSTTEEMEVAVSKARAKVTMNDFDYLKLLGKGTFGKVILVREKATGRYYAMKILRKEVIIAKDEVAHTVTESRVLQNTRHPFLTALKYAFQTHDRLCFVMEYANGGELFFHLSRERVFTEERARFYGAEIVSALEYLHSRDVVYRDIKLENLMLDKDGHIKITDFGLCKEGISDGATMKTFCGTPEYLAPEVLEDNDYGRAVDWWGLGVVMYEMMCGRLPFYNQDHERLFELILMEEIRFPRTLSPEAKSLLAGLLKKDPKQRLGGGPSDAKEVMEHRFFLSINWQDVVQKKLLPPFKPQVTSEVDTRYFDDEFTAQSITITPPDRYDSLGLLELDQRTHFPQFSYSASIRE
Sequence of ACVR2B (Q13705 19-512): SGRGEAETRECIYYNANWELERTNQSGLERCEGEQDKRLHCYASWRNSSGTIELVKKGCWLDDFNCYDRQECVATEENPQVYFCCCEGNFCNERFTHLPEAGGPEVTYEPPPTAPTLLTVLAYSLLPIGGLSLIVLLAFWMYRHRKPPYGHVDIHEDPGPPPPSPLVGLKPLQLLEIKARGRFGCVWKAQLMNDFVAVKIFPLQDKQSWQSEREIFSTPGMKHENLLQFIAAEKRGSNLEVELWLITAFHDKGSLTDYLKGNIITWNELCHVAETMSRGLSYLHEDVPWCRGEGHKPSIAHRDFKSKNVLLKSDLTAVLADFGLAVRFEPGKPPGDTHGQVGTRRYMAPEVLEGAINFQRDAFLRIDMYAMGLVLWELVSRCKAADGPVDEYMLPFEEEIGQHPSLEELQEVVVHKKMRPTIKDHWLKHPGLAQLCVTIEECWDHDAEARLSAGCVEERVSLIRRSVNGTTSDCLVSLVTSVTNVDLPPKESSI
Sequence of ERK5 (Q13164 whole entry): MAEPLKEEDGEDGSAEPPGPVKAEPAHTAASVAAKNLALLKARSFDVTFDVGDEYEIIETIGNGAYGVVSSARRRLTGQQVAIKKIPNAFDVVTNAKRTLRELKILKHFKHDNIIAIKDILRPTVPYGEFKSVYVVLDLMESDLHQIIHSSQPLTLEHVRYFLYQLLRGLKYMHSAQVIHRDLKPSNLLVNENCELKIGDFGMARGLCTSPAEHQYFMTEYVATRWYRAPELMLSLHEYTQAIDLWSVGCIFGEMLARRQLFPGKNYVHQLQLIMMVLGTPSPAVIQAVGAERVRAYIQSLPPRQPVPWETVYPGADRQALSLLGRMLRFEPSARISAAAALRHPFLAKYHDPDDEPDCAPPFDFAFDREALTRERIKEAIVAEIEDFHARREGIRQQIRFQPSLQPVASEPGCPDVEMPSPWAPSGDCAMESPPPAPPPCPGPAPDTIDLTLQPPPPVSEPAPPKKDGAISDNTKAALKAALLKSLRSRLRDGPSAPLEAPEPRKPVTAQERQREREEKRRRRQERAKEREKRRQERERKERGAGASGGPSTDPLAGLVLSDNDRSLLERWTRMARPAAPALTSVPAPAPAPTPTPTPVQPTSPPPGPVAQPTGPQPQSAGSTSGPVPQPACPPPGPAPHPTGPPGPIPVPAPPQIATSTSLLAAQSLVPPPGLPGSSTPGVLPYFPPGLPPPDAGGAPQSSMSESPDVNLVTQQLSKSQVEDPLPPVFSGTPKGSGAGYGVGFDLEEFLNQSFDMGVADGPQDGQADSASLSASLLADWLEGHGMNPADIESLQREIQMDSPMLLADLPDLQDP
Sequence of TNK1 (Q13470 whole entry): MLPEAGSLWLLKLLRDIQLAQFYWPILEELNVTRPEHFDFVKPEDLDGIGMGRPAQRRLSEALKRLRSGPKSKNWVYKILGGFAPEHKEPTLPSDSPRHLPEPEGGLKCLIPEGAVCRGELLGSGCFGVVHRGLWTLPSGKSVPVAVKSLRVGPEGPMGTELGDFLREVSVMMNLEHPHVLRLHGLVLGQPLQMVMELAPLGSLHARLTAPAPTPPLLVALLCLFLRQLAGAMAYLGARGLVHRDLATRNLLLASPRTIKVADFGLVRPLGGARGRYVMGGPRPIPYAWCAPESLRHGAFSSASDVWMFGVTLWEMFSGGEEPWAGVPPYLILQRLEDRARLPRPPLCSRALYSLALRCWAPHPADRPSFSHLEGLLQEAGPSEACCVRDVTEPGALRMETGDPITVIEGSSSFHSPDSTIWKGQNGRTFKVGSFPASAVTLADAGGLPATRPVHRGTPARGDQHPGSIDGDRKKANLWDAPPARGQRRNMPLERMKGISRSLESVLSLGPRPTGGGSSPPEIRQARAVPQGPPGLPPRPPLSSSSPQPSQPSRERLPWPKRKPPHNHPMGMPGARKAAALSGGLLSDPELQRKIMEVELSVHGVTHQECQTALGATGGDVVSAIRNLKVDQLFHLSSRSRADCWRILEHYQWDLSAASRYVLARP

Q: For `COc1ccc(N2C(=O)N(c3c(C)cccc3C)Cc3cnc(Nc4ccc(N5CCN(C)CC5)cc4)nc32)c(OC)c1` [HG-11-136-01], which “KINOMEscan CDKL3” value (CDKL3) is on record?
A: 58

Q: What about the “KINOMEscan CAMKK2” value (CAMKK2) of the same compound?
A: 100

Q: And the “KINOMEscan TNK1” value (TNK1)?
A: 0.9

Q: And the “KINOMEscan MKNK2” value (MKNK2)?
A: 99

Q: What about the “KINOMEscan IKK-epsilon” value (IKK-epsilon) of the same compound?
A: 47

Q: And the “KINOMEscan PIP5K2B” value (PIP5K2B)?
A: 27

Q: What about the “Enzyme activity at 1 μM (%) SIK3” value (SIK3; 1 μM) of the same compound?
A: 9%

Q: And the “SIK3 % ACTIVITY” value (SIK3; compound at 1 μM, approximate Km for ATP)?
A: 9%

Q: What about the “KINOMEscan HIPK1” value (HIPK1) of the same compound?
A: 3.8

Q: And the “KINOMEscan RIOK3” value (RIOK3)?
A: 25

Q: And the “KINOMEscan TAOK2” value (TAOK2)?
A: 0

Q: What about the “KINOMEscan S6K1” value (S6K1) of the same compound?
A: 72

Q: What about the “KINOMEscan CASK” value (CASK) of the same compound?
A: 54

Q: What about the “KINOMEscan MEK3” value (MEK3) of the same compound?
A: 6.4

Q: And the “KINOMEscan BUB1” value (BUB1)?
A: 100

Q: What about the “KINOMEscan MERTK” value (MERTK) of the same compound?
A: 5.6

Q: What about the “KINOMEscan CSNK1G1” value (CSNK1G1) of the same compound?
A: 92

Q: What about the “KINOMEscan ERK5” value (ERK5) of the same compound?
A: 84

Q: What about the “KINOMEscan ACVR2B” value (ACVR2B) of the same compound?
A: 3.2

Q: And the “KINOMEscan RPS6KA4 (Kin.Dom.2-C-terminal)” value [1]?
A: 90

Q: And the “KINOMEscan ALK” value (ALK)?
A: 1.6

Q: And the “KINOMEscan TBK1” value (TBK1)?
A: 37

Q: What about the “KINOMEscan CDK8” value (CDK8) of the same compound?
A: 100

Q: What about the “KINOMEscan CLK4” value (CLK4) of the same compound?
A: 33

Q: What about the “KINOMEscan RIPK4” value (RIPK4) of the same compound?
A: 55

Q: What about the “KINOMEscan TRKB” value (TRKB) of the same compound?
A: 63

Q: What about the “KINOMEscan STK39” value (STK39) of the same compound?
A: 28

Q: What about the “KINOMEscan CDK4-cyclinD3” value (CDK4-cyclinD3) of the same compound?
A: 26

Q: What about the “KINOMEscan EGFR” value (EGFR) of the same compound?
A: 0.7

Q: What about the “KINOMEscan KIT (V559D, V654A)” value (KIT (V559D, V654A)) of the same compound?
A: 2.2

Q: What about the “KINOMEscan SGK” value (SGK) of the same compound?
A: 63

Q: What about the “KINOMEscan JAK1 (JH1domain-catalytic)” value [2] of the same compound?
A: 57

Q: And the “KINOMEscan PAK3” value (PAK3)?
A: 11

Q: And the “KINOMEscan CAMK2A” value (CAMK2A)?
A: 93

Q: And the “KINOMEscan TIE1” value (TIE1)?
A: 30

Q: And the “KINOMEscan WEE2” value (WEE2)?
A: 82

Q: What about the “KINOMEscan PIK3CA (H1047Y)” value (PIK3CA (H1047Y)) of the same compound?
A: 63

Q: And the “KINOMEscan AKT2” value (AKT2)?
A: 100

Q: What about the “KINOMEscan MRCKB” value (MRCKB) of the same compound?
A: 38

Q: And the “KINOMEscan ABL2” value (ABL2)?
A: 0.35

Q: What about the “KINOMEscan GAK” value (GAK) of the same compound?
A: 6.8

Q: And the “KINOMEscan HIPK4” value (HIPK4)?
A: 51
